# Source: paper PMC10714400, “Antimicrobial Peptide–Peptoid Hybrids with and without Membrane Disruption” (ACS Infectious Diseases, 2023)
# Read-outs that look alike come from different tables or passages of the source. Where a SMILES comes first, the peptide text is derived from it. [ ]: non-standard residue; d: D form. Nleu = CC(C)CNCC(=O)O; Nlys = NCCCCNCC(=O)O
# Tests used:
# [1] = test system: E. cloacae; conditions: […] MH at pH 8.5
# How it was run: (§1)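 MIC taken visually after MTT staining (20–30 min, RT) as the lowest compound concentration preventing growth, i.e. yellow wells. Inoculum ~5 × 10^5 CFU/well in MH broth, 37 °C static for ca. 18 h; polymyxin B control started at 16 μg/mL.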
# [2] = test system: E. coli W3110
# How it was run: as §1
# [3] = test system: K. pneumoniae OXA-48; conditions: […] MH at pH 8.5
# How it was run: as §1
# [4] = test system: PA14 2P4 (pmrB)
# How it was run: as §1
# [5] = test system: PA14 4.13 (phoQ)
# How it was run: as §1
# [6] = test system: S. aureus COL (MRSA)
# How it was run: as §1
# [7] = test system: ZEM-1A (clinical MDR P. aeruginosa isolate)
# How it was run: as §1
# [8] = test system: ZEM9A (clinical MDR P. aeruginosa isolate); conditions: […] MH at pH 8.5
# How it was run: as §1
# [9] = test system: human red blood cells (hRBC); experiment: Minimum hemolytic concentration (MHC); assay type: cell-based
# Text: We also measured minimal hemolysis concentrations (MHC) on human red blood cells by serial 2-fold dilution as an indication of toxicity against eukaryotic cells (Table 1).
# [10] = Circular dichroism, α-helical content; assay type: physicochemical; conditions: 0.1 mg/mL; for CD %α with 5 mM DPC: 10 mM phosphate buffer pH 7.4, 5 mM DPC; for CD %α with 20% TFE: 10 mM phosphate buffer pH 7.4, 20% TFE
# [11] = test system: B. cenocepacia; conditions: diluted MH ([…] MH) at pH 8.5 (Table 2 footnote b)
# How it was run: as §1
# [12] = test system: P. aeruginosa PA14
# How it was run: as §1
# [13] = test system: S. aureus Newman; conditions: […] MH at pH 8.5
# How it was run: as §1
# [14] = test system: S. epidermis; conditions: […] MH at pH 8.5
# How it was run: as §1
# [15] = test system: S. maltophilia; conditions: […] MH at pH 8.5
# How it was run: as §1
# [16] = test system: HEK293 cells; experiment: Cell viability assay by Alamar blue
# Protocol: The data are represented as the mean value ± SD, n = 3. […] (c) Vesicle leakage assay for a selection of compounds. Lipid vesicles made of EYPG or EYPC were suspended in a buffer (10 mM TRIS, 107 mM NaCl, pH 7.4). After 45 s, the indicated compound was added to reach the desired concentration. After 240 s, 30 μL of 1.2% TritonX-100 was added for full fluorescein release. […] See Supporting Information for the full curves, all of the data, and procedures.
# HEK293 cells were cultured and maintained in DMEM high glucose (Dulbecco’s modified Eagle medium, Sigma Aldrich) medium supplemented with 10% FBS (Sigma Aldrich) and 1% penicillin/streptomycin. A549 cells were cultured and maintained in RPMI-1640 medium (Sigma Aldrich), supplemented with 10% FBS (Sigma Aldrich) and 1% penicillin/streptomycin. The cells were handled and subcultured according to the manufacturer instructions. Cells were incubated in a humidified incubator at 37 °C in the presence of 5% CO2.
# Assays on HEK293, A549 cells were performed as described earlier.[74] […]
# [17] = diluted MH ([…] MH) at pH 8.5 (Table 2 footnote b)
smiles,measurement,setting,value
"CC(C)CN(CC(N)=O)C(=O)CN(CC(C)C)C(=O)CN(CC(C)C)C(=O)CN(CCCCN)C(=O)CN(CC(C)C)C(=O)CN(CC(C)C)C(=O)CN(CCCCN)C(=O)CN(CC(C)C)C(=O)CN(CC(C)C)C(=O)CN(CCCCN)C(=O)CNCCCCN [EB11, kkllkllklll] (H-[Nlys][Nlys][Nleu][Nleu][Nlys][Nleu][Nleu][Nlys][Nleu][Nleu][Nleu]-NH2)","MIC E. cloacae, […] MH at pH 8.5",[1]; CSV,16 ug/mL
same,MIC E. cloacae,[1]; Table S3,16 µg/mL
same,"MIC E. coli W3110, […] MH at pH 7.4","[2]; CSV, […] MH at pH 7.4",8 ug/mL
same,"MIC E. coli W3110, […] MH at pH 8.5","[2]; CSV, […] MH at pH 8.5",3 ug/mL
same,"MIC E. coli W3110, full MH at pH 7.4","[2]; CSV, full MH at pH 7.4",>32 ug/mL
same,"MIC E. coli W3110, full MH at pH 8.5","[2]; CSV, full MH at pH 8.5",>32 ug/mL
same,Antibacterial activity as a function of NaCl concentration,"[2]; E. coli W3110, […] MH at pH 8.5, up to 300 mM NaCl",strongly reduced
same,MIC E. coli W3110 […] 7.4,"[2]; Table S2, […] MH, pH 7.4",8 µg/mL
same,MIC E. coli W3110 […] 8.5,"[2]; Table S2, […] MH, pH 8.5",2 to 4 µg/mL
same,MIC E. coli W3110 Full MH 7.4,"[2]; Table S2, full MH, pH 7.4",> 32 µg/mL
same,MIC E. coli W3110 Full MH 8.5,"[2]; Table S2, full MH, pH 8.5",> 32 µg/mL
same,"MIC K. pneumoniae OXA-48, […] MH at pH 8.5",[3]; CSV,32 ug/mL
same,MIC K. pneumoniae OXA-48,[3]; Table S3,32 µg/mL
same,"MIC P. aeruginosa PA14 2P4, […] MH at pH 8.5","[4]; CSV, […] MH at pH 8.5",12 ug/mL
same,MIC P. aeruginosa PA14 2P4,"[4]; Table S3, […] MH at pH 8.5",8 to 16 µg/mL
same,MIC PA14 2P4 (pmrB),[4]; [17],8 to 16 µg/mL
same,"MIC P. aeruginosa PA14 4.13, […] MH at pH 8.5","[5]; CSV, […] MH at pH 8.5",6 ug/mL
same,MIC P. aeruginosa PA14 4.13,"[5]; Table S3, […] MH at pH 8.5",4 to 8 µg/mL
same,MIC PA14 4.13 (phoQ),[5]; [17],4 to 8 µg/mL
same,"MIC S. aureus COL (MRSA), […] MH at pH 7.4","[6]; CSV, […] MH at pH 7.4",>32 ug/mL
same,"MIC S. aureus COL (MRSA), […] MH at pH 8.5","[6]; CSV, […] MH at pH 8.5",6 ug/mL
same,"MIC S. aureus COL (MRSA), full MH at pH 7.4","[6]; CSV, full MH at pH 7.4",>32 ug/mL
same,"MIC S. aureus COL (MRSA), full MH at pH 8.5","[6]; CSV, full MH at pH 8.5",>32 ug/mL
same,MIC S. aureus COL (MRSA) […] 7.4,"[6]; Table S2, […] MH, pH 7.4",> 32 µg/mL
same,MIC S. aureus COL (MRSA) […] 8.5,"[6]; Table S2, […] MH, pH 8.5",4 to 8 µg/mL
same,MIC S. aureus COL (MRSA) Full MH 7.4,"[6]; Table S2, full MH, pH 7.4",> 32 µg/mL
same,MIC S. aureus COL (MRSA) Full MH 8.5,"[6]; Table S2, full MH, pH 8.5",> 32 µg/mL
same,MIC S. aureus COL (MRSA) […],"[6]; diluted MH ([…] MH, pH 8.5) per Table 1 footnote b, 16–20 h at 37 °C",>32 µg/mL
same,"MIC P. aeruginosa ZEM-1A, […] MH at pH 8.5","[7]; CSV, […] MH at pH 8.5",3 ug/mL
same,MIC P. aeruginosa ZEM-1A,"[7]; Table S3, […] MH at pH 8.5",2 to 4 µg/mL
same,MIC ZEM-1A,[7]; [17],2 to 4 µg/mL
same,"MIC P. aeruginosa ZEM9A, […] MH at pH 8.5",[8]; CSV,4 ug/mL
same,MIC P. aeruginosa ZEM9A,[8]; Table S3,4 µg/mL
same,MHC,[9]; CSV,>2000 µg/mL
same,MHC,"[9]; Table S2, hRBC, 10 mM phosphate buffer, 150 mM NaCl, pH 7.4, 25 °C, 4 h",> 2000 µg/mL
same,MHC,"[9]; hRBC, 10 mM phosphate buffer, 150 mM NaCl, pH 7.4, 25 °C, 4 h",>2000 µg/mL
same,Hemolysis,[9]; human red blood cells,none of them showed any measurable hemolysis
same,CD %α with 5 mM DPC,"[10]; DichroWeb, Contin-LL",7%
same,CD %α with 20% TFE,"[10]; DichroWeb, Contin-LL",8%
same,CD %α with 5 mM DPC,[10]; Table S2,7%
same,CD %α with 20% TFE,[10]; Table S2,8%
same,MIC B. cenocepacia,[11],>32 µg/mL
same,"MIC P. aeruginosa PA14, […] MH at pH 8.5","[12]; CSV, […] MH at pH 8.5",3 ug/mL
same,MIC P. aeruginosa PA14,"[12]; Table S3, […] MH at pH 8.5, 16-20 hours at 37 °C",2 to 4 µg/mL
same,MIC P. aeruginosa PA14,[12]; [17],2 to 4 µg/mL
same,"MIC S. aureus Newman, […] MH at pH 8.5",[13]; CSV,4 ug/mL
same,MIC S. aureus Newman,[13]; Table S3,4 µg/mL
same,"MIC S. epidermis, […] MH at pH 8.5",[14]; CSV,1 ug/mL
same,MIC S. epidermis,[14]; Table S3,1 µg/mL
same,"MIC S. maltophilia, […] MH at pH 8.5",[15]; CSV,4 ug/mL
same,MIC S. maltophilia,[15]; Table S3,4 µg/mL
same,"Toxicity against HEK293 cells, no effect detected up to","[16]; Alamar blue, 24 h",> 200 µM
same,IC50,"[16]; read-out: Toxicity on HEK293 cells, CSV",> 200 µM
